Experimental data reported in patent US20220175768A1, “FGFR TYROSINE KINASE INHIBITORS FOR THE TREATMENT OF UROTHELIAL CARCINOMA” (Janssen Pharmaceutica NV, priority 2019, published 2022).
Where two headings read alike, the source gives them in different places.

[1] = 8 mg continuous, selected regimen 3 (n = 99)
[2] = 8 mg continuous, selected regimen 3 (n = 99), Table 14
[3] = 10 mg intermittent, regimen 1 (n = 33)

COc1cc(OC)cc(N(CCNC(C)C)c2ccc3ncc(-c4cnn(C)c4)nc3c2)c1 [erdafitinib, N-(3,5-dimethoxy-phenyl)-N′-(1-methylethyl)-N-[3-(1-methyl-1H-pyrazol-4-yl)quinoxalin-6-yl]ethane-1,2-diamine]
Patients with Hyperphosphatemia, Grade ≥3 [1]: 2 (2) no. (%)
Patients with Hypomagnesemia, Any grade [1]: 10 (10) no. (%)
Patients with Hypomagnesemia, Grade 1 [1]: 9 (9) no. (%)
Patients with Hypomagnesemia, Grade 2 [1]: 1 (1) no. (%)
Patients with Hypomagnesemia, Grade ≥3 [1]: 0 no. (%)
Patients with Hyponatremia, Any grade [1]: 12 (12) no. (%)
Patients with Hyponatremia, Grade 1 [1]: 1 (1) no. (%)
Patients with Hyponatremia, Grade 2 [1]: 0 no. (%)
Patients with Hyponatremia, Grade ≥3 [1]: 11 (11) no. (%)
Patients with Insomnia, Any grade [1]: 7 (7) no. (%)
Patients with Insomnia, Grade 1 [1]: 4 (4) no. (%)
Patients with Insomnia, Grade 2 [1]: 3 (3) no. (%)
Patients with Insomnia, Grade ≥3 [1]: 0 no. (%)
Patients with Lacrimation increased, Any grade [1]: 11 (11) no. (%)
Patients with Lacrimation increased, Grade 1 [1]: 8 (8) no. (%)
Patients with Lacrimation increased, Grade 2 [1]: 3 (3) no. (%)
Patients with Lacrimation increased, Grade ≥3 [1]: 0 no. (%)
Patients with Nail dystrophy, Any grade [1]: 16 (16) no. (%)
Patients with Nail dystrophy, Grade 1 [1]: 5 (5) no. (%)
Patients with Nail dystrophy, Grade 2 [1]: 5 (5) no. (%)
Patients with Nail dystrophy, Grade ≥3 [1]: 6 (6) no. (%)
Patients with Nausea, Any grade [1]: 20 (20) no. (%)
Patients with Nausea, Grade 1 [1]: 13 (13) no. (%)
Patients with Nausea, Grade 2 [1]: 6 (6) no. (%)
Patients with Nausea, Grade ≥3 [1]: 1 (1) no. (%)
Patients with Onycholysis, Any grade [1]: 18 (18) no. (%)
Patients with Onycholysis, Grade 1 [1]: 6 (6) no. (%)
Patients with Onycholysis, Grade 2 [1]: 10 (10) no. (%)
Patients with Onycholysis, Grade ≥3 [1]: 2 (2) no. (%)
Patients with Onychomadesis, Any grade [1]: 7 (7) no. (%)
Patients with Onychomadesis, Grade 1 [1]: 2 (2) no. (%)
Patients with Onychomadesis, Grade 2 [1]: 5 (5) no. (%)
Patients with Onychomadesis, Grade ≥3 [1]: 0 no. (%)
Patients with Oropharyngeal pain, Any grade [1]: 10 (10) no. (%)
Patients with Oropharyngeal pain, Grade 1 [1]: 8 (8) no. (%)
Patients with Oropharyngeal pain, Grade 2 [1]: 1 (1) no. (%)
Patients with Oropharyngeal pain, Grade ≥3 [1]: 1 (1) no. (%)
Patients with Pain in extremity, Any grade [1]: 12 (12) no. (%)
Patients with Pain in extremity, Grade 1 [1]: 10 (10) no. (%)
Patients with Pain in extremity, Grade 2 [1]: 2 (2) no. (%)
Patients with Pain in extremity, Grade ≥3 [1]: 0 no. (%)
Patients with Paronychia, Any grade [1]: 17 (17) no. (%)
Patients with Paronychia, Grade 1 [1]: 3 (3) no. (%)
Patients with Paronychia, Grade 2 [1]: 11 (11) no. (%)
Patients with Paronychia, Grade ≥3 [1]: 3 (3) no. (%)
Patients with Peripheral edema, Any grade [1]: 9 (9) no. (%)
Patients with Peripheral edema, Grade 1 [1]: 5 (5) no. (%)
Patients with Peripheral edema, Grade 2 [1]: 3 (3) no. (%)
Patients with Peripheral edema, Grade ≥3 [1]: 1 (1) no. (%)
Patients with Pyrexia, Any grade [1]: 13 (13) no. (%)
Patients with Pyrexia, Grade 1 [1]: 8 (8) no. (%)
Patients with Pyrexia, Grade 2 [1]: 5 (5) no. (%)
Patients with Pyrexia, Grade ≥3 [1]: 0 no. (%)
Patients with Retinal detachment, Any grade [1]: 5 (5) no. (%)
Patients with Retinal detachment, Grade 1 [1]: 3 (3) no. (%)
Patients with Retinal detachment, Grade 2 [1]: 2 (2) no. (%)
Patients with Retinal detachment, Grade ≥3 [1]: 0 no. (%)
Patients with Stomatitis, Any grade [1]: 57 (58) no. (%)
Patients with Stomatitis, Grade 1 [1]: 21 (21) no. (%)
Patients with Stomatitis, Grade 2 [1]: 26 (26) no. (%)
Patients with Stomatitis, Grade ≥3 [1]: 10 (10) no. (%)
Patients with Urinary tract infection, Any grade [1]: 16 (16) no. (%)
Patients with Urinary tract infection, Grade 1 [1]: 0 no. (%)
Patients with Urinary tract infection, Grade 2 [1]: 11 (11) no. (%)
Patients with Urinary tract infection, Grade ≥3 [1]: 5 (5) no. (%)
Patients with Vision blurred, Any grade [1]: 17 (17) no. (%)
Patients with Vision blurred, Grade 1 [1]: 10 (10) no. (%)
Patients with Vision blurred, Grade 2 [1]: 7 (7) no. (%)
Patients with Vision blurred, Grade ≥3 [1]: 0 no. (%)
Patients with Vomiting, Any grade [1]: 13 (13) no. (%)
Patients with Vomiting, Grade 1 [1]: 10 (10) no. (%)
Patients with Vomiting, Grade 2 [1]: 1 (1) no. (%)
Patients with Vomiting, Grade ≥3 [1]: 2 (2) no. (%)
Patients with Weight decreased, Any grade [1]: 15 (15) no. (%)
Patients with Weight decreased, Grade 1 [1]: 7 (7) no. (%)
Patients with Weight decreased, Grade 2 [1]: 8 (8) no. (%)
Patients with Weight decreased, Grade ≥3 [1]: 0 no. (%)
Patients with Alopecia, Grade ≥3 [2]: 0 no.
Patients with Decreased appetite, Grade ≥3 [2]: 0 no.
Patients with Dry mouth, Grade ≥3 [2]: 0 no.
Patients with Dry skin, Grade ≥3 [2]: 0 no.
Patients with Urinary tract infection, Grade 1 [2]: 0 no.
Patients with Vision blurred, Grade ≥3 [2]: 0 no.
Patients with some type of eye disorder, regardless of relation to treatment (8 mg per day continuous): 63%
Patients with grade ≥3 treatment-emergent adverse events (8 mg per day continuous group uptitrated to 9 mg per day): 68%
Patients with Abdominal pain, Any grade [3]: 5 (15) no. (%)
Patients with Abdominal pain, Grade 1 [3]: 2 (6) no. (%)
Patients with Abdominal pain, Grade 2 [3]: 2 (6) no. (%)
Patients with Abdominal pain, Grade ≥3 [3]: 1 (3) no. (%)
Patients with Alanine aminotransferase increased, Any grade [3]: 1 (3) no. (%)
Patients with Alanine aminotransferase increased, Grade 1 [3]: 0 no. (%)
Patients with Alanine aminotransferase increased, Grade 2 [3]: 1 (3) no. (%)
Patients with Alanine aminotransferase increased, Grade ≥3 [3]: 0 no. (%)
Patients with Alopecia, Any grade [3]: 4 (12) no. (%)
Patients with Alopecia, Grade 1 [3]: 2 (6) no. (%)
Patients with Alopecia, Grade 2 [3]: 2 (6) no. (%)
Patients with Alopecia, Grade ≥3 [3]: 0 no. (%)
Patients with Anemia, Any grade [3]: 8 (24) no. (%)
Patients with Anemia, Grade 1 [3]: 1 (3) no. (%)
Patients with Anemia, Grade 2 [3]: 1 (3) no. (%)
Patients with Anemia, Grade ≥3 [3]: 6 (18) no. (%)
Patients with Arthralgia, Any grade [3]: 7 (21) no. (%)
Patients with Arthralgia, Grade 1 [3]: 3 (9) no. (%)
Patients with Arthralgia, Grade 2 [3]: 2 (6) no. (%)
Patients with Arthralgia, Grade ≥3 [3]: 2 (6) no. (%)
Patients with Aspartate aminotransferase increased, Any grade [3]: 2 (6) no. (%)
Patients with Aspartate aminotransferase increased, Grade 1 [3]: 2 (6) no. (%)
Patients with Aspartate aminotransferase increased, Grade 2 [3]: 0 no. (%)
Patients with Aspartate aminotransferase increased, Grade ≥3 [3]: 0 no. (%)
Patients with Asthenia, Any grade [3]: 10 (30) no. (%)
Patients with Asthenia, Grade 1 [3]: 5 (15) no. (%)
Patients with Asthenia, Grade 2 [3]: 3 (9) no. (%)
Patients with Asthenia, Grade ≥3 [3]: 2 (6) no. (%)
Patients with Back pain, Any grade [3]: 5 (15) no. (%)
Patients with Back pain, Grade 1 [3]: 1 (3) no. (%)
Patients with Back pain, Grade 2 [3]: 1 (3) no. (%)
Patients with Back pain, Grade ≥3 [3]: 3 (9) no. (%)
Patients with Blood creatinine increased, Any grade [3]: 4 (12) no. (%)
Patients with Blood creatinine increased, Grade 1 [3]: 3 (9) no. (%)
Patients with Blood creatinine increased, Grade 2 [3]: 1 (3) no. (%)
Patients with Blood creatinine increased, Grade ≥3 [3]: 0 no. (%)
Patients with Conjunctivitis, Any grade [3]: 4 (12) no. (%)
Patients with Conjunctivitis, Grade 1 [3]: 3 (9) no. (%)
Patients with Conjunctivitis, Grade 2 [3]: 1 (3) no. (%)
Patients with Conjunctivitis, Grade ≥3 [3]: 0 no. (%)
Patients with Constipation, Any grade [3]: 14 (42) no. (%)
Patients with Constipation, Grade 1 [3]: 8 (24) no. (%)
Patients with Constipation, Grade 2 [3]: 6 (18) no. (%)
Patients with Constipation, Grade ≥3 [3]: 0 no. (%)
Patients with Decreased appetite, Any grade [3]: 11 (33) no. (%)
Patients with Decreased appetite, Grade 1 [3]: 4 (12) no. (%)
Patients with Decreased appetite, Grade 2 [3]: 6 (18) no. (%)
Patients with Decreased appetite, Grade ≥3 [3]: 1 (3) no. (%)
Patients with Diarrhea, Any grade [3]: 14 (42) no. (%)
Patients with Diarrhea, Grade 1 [3]: 7 (21) no. (%)
Patients with Diarrhea, Grade 2 [3]: 6 (18) no. (%)
Patients with Diarrhea, Grade ≥3 [3]: 1 (3) no. (%)
Patients with Dry eye, Any grade [3]: 3 (9) no. (%)
Patients with Dry eye, Grade 1 [3]: 2 (6) no. (%)
Patients with Dry eye, Grade 2 [3]: 1 (3) no. (%)
Patients with Dry eye, Grade ≥3 [3]: 0 no. (%)
Patients with Dry mouth, Any grade [3]: 16 (48) no. (%)
Patients with Dry mouth, Grade 1 [3]: 15 (46) no. (%)
Patients with Dry mouth, Grade 2 [3]: 1 (3) no. (%)
Patients with Dry mouth, Grade ≥3 [3]: 0 no. (%)
Patients with Dry skin, Any grade [3]: 9 (27) no. (%)
Patients with Dry skin, Grade 1 [3]: 8 (24) no. (%)
Patients with Dry skin, Grade 2 [3]: 1 (3) no. (%)
Patients with Dry skin, Grade ≥3 [3]: 0 no. (%)
Patients with Dysgeusia, Any grade [3]: 10 (30) no. (%)
Patients with Dysgeusia, Grade 1 [3]: 7 (21) no. (%)
Patients with Dysgeusia, Grade 2 [3]: 3 (9) no. (%)
Patients with Dysgeusia, Grade ≥3 [3]: 0 no. (%)
Patients with Dyspepsia, Any grade [3]: 3 (9) no. (%)
Patients with Dyspepsia, Grade 1 [3]: 2 (6) no. (%)
Patients with Dyspepsia, Grade 2 [3]: 1 (3) no. (%)
Patients with Dyspepsia, Grade ≥3 [3]: 0 no. (%)
Patients with Dyspnea, Any grade [3]: 8 (24) no. (%)
Patients with Dyspnea, Grade 1 [3]: 3 (9) no. (%)
Patients with Dyspnea, Grade 2 [3]: 2 (6) no. (%)
Patients with Dyspnea, Grade ≥3 [3]: 3 (9) no. (%)
Patients with Fatigue, Any grade [3]: 6 (18) no. (%)
Patients with Fatigue, Grade 1 [3]: 4 (12) no. (%)
Patients with Fatigue, Grade 2 [3]: 2 (6) no. (%)
Patients with Fatigue, Grade ≥3 [3]: 0 no. (%)
Patients with Hand-foot syndrome, Any grade [3]: 2 (6) no. (%)
Patients with Hand-foot syndrome, Grade 1 [3]: 0 no. (%)
Patients with Hand-foot syndrome, Grade 2 [3]: 2 (6) no. (%)
Patients with Hand-foot syndrome, Grade ≥3 [3]: 0 no. (%)
Patients with Hematuria, Any grade [3]: 3 (9) no. (%)
Patients with Hematuria, Grade 1 [3]: 1 (3) no. (%)
Patients with Hematuria, Grade 2 [3]: 2 (6) no. (%)
